Here are results for one compound from US10357490B2, “Combinations for the treatment of neuroblastoma” (IGNYTA, INC., priority 2014, dated 2019).

The subject of assay [1] is TrkB-expressing neuroblastoma cells (SH-SY5Y cells stably transfected with TrkB). Kind of assay: Sulphorhodamine B (SRB) assay, survival and growth of TrkB-expressing neuroblastoma cells. In kind it is cell-based. The note with it: single agent; 1-100 nM; 100 ng per mL BDNF; 24, 48, 72 hours. In general terms: In SRB staining, fixed cells bind dye roughly in proportion to their protein.

Assay [2] concerns SY5Y-TrkB cells. Kind of assay: SY5Y-TrkB xenograft study: tumor growth and event-free survival. In kind it is in vivo, athymic nu/nu mice. Particulars: oral.
Procedure: N-[5-(3,5-difluorobenzyl)-1H-indazol-3-yl]-4-(4-methyl-piperazin-1-yl)-2-(tetrahydro-2H-pyran-4-ylamino) benzamide_was dissolved in DMSO to obtain stocks for in vitro studies. For in vivo xenograft experiments, N-[5-(3,5-difluorobenzyl)-1H-indazol-3-yl]-4-(4-methyl-piperazin-1-yl)-2-(tetrahydro-2H-pyran-4-ylamino) benzamide was reconstituted in 0.5% methyl cellulose (Sigma-Aldrich, viscosity 400 cP, 2% in H2O) containing 1% Tween 80 at a final dosing volume of 10 mL per kg. Prior to dosing, the formulation was stirred at room temperature for 30 min, and then sonicated in a water bath sonicator for 20 min. The formulation was made fresh every week. For the in vivo study, the animals were dosed with the formulation of N-[5-(3,5-difluorobenzyl)-1H-indazol-3-yl]-4-(4-methyl-piperazin-1-yl)-2-(tetrahydro-2H-pyran-4-ylamino) benzamide twice a day (BID) for 7 days per week at a dose of 60 mg per kg.
Xenograft studies were performed using SH-SY5Y cells stably transfected with TrkB. Cells were grown in RPMI-1640 medium containing 10% fetal bovine serum and maintained in 150 cm^3 Costar culture flasks in a humidified atmosphere of 95% air and 5% CO2. Cells were harvested using 0.2% tetra sodium EDTA in phosphate buffered saline (PBS).
Six-week-old athymic nu/nu mice were obtained from Jackson Laboratories. Mice were maintained at five per cage under humidity- and temperature-controlled conditions in a light/dark cycle that was set at 12-hour intervals.
For in vivo xenograft studies, six-week-old athymic nu/nu mice were injected subcutaneously in the flank with 1×10^7 SY5Y-TrkB cells in 0.1 ml of Matrigel (BD Bioscience, Palo Alto, Calif.). Tumors were measured 2 times per week in 3 dimensions, and the volume calculated as follows: [(0.523×L×W×W)/1000]. Body weights of the mice were obtained every week and the dose of the tested compounds were adjusted accordingly. […]

Each structure is given as a SMILES string.

Turning to `CN1CCN(c2ccc(C(=O)Nc3n[nH]c4ccc(Cc5cc(F)cc(F)c5)cc34)c(NC3CCOCC3)c2)CC1` [N-[5-(3,5-difluorobenzyl)-1H-indazol-3-yl]-4-(4-methyl-piperazin-1-yl)-2-(tetrahydro-2H-pyran-4-ylamino) benzamide], the “inhibition of growth of TrkB-expressing NB cells in vitro” value in assay [1] was “significantly inhibited growth”. In addition, in assay [2] (Control vs Group 2 analysis (FIG. 3), Group 2: alone, 60 mg per kg, twice per day, 7 times per week), the “Estimated slope from linear mixed effects model (increase of log tumor volume)” value is given as 0.0973 per day in the log of tumor volume. Moreover, the “Estimated slope of trace in FIG. 1, linear mixed effects model” value in assay [2] (Group 2: alone, 60 mg per kg, twice per day, 7 times per week) is listed as 0.0696 per day in the log of tumor volume. Further, the “tumor growth inhibition compared to control animals” value in assay [2] (single agent therapy, 60 mg per kg BID) is recorded as “significant tumor growth inhibition”.
